The values below come from patent publication US20250179059A1 (The Regents of the University of California, priority 2021, published 2025).

Like-named read-outs stand apart in the source and are kept apart here.

What is called IC50 is the point on the concentration scale where inhibition reaches its midpoint. Usually GI50 stands for the concentration that inhibits growth by half. Low values mean more potent growth inhibition, high ones less potent growth inhibition.

The target of assay [1] is T1, human BRD4 bromodomain II (Homo sapiens, UniProt O60885).
T1 construct: human BRD4 bromodomain II [based on Genbank NM_058243, residues 349-460]; host or cells: E. coli
The experiment in a line: Bromodomain binding assay (AlphaScreen), BRD4 BDII. In short, it runs like this: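 Compounds (10-point, 3-fold series) were preincubated 30 min at room temperature with E. coli-expressed N-terminal His6-tagged BRD4 BDII (residues 349-460) or BDI (residues 44-170) in 50 mM HEPES pH 7.5, 100 mM NaCl, 0.05% CHAPS, 0.1% BSA, 1% DMSO. Displacement of biotinylated tetra-acetylated H4 1-21 peptide was read by AlphaScreen; IC50 from curve fitting.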
(Bead proximity is the source of the signal in Alpha formats.)

Assay [2] concerns human SKM-1 acute myeloid leukemia cells. Nature of the assay: SKM-1 antiproliferation cell-based assay (ATPlite). In short, it runs like this: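 Log-phase cells in RPMI 1640/15% FBS were seeded at 34722 cells/mL and exposed for 4 days to nine-concentration DMSO serial dilutions in triplicate. Viability was read as ATP luminescence (ATPlite 1step), and IC50 values came from variable-slope non-linear regression.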

The mark [3] stands for this setting: AlphaScreen assay, Table C2, read-out: BRD4 BDII IC50.
Where [4] appears, read: Homo sapiens, SKM-1, 96 h, SKM-1 antiproliferation assay, 4 days, Table C2.
The mark [5] stands for this setting: BRD4 BDII AlphaScreen assay, read-out: BRD4 BD2 IC50.
[6] abbreviates: Homo sapiens, SKM-1, SKM-1 antiproliferation assay.

Regarding `CC(C)N1C2CCC1CN(c1cccc(-c3cc(F)cc(-c4ccc(-n5ccn(C)c5=O)c(Cl)c4)c3O)c1)C2` [Example 846, 1-(3-chloro-5′-fluoro-2′-hydroxy-338-(8-isopropyl-3,8-diazabicyclo[3.2.1]octan-3-yl)-[1,1′:3′,1″-terphenyl]-4-yl)-3-methyl-1H-imidazol-2(3H)-one], the IC50 in assay [1] (setting [3]) was in the range of 0.01 to 1 nM. The compound also had a GI50 in assay [2] (setting [4]) of 0.3 to 30 nM.
For `Cn1ccn(-c2ccc(-c3cc(F)cc(-c4ccnc(N5CCC[C@H](O)C5)c4)c3O)cc2Cl)c1=O` [Example 628, (S)-1-(3-chloro-5′-fluoro-2′-hydroxy-3′-(2-(3-hydroxypiperidin-1-yl)pyridin-4-yl)-[1,1′-biphenyl]-4-yl)-3-methyl-1H-imidazol-2(3H)-one] the same measures were 0.01 to 1 nM and 30 to 300 nM.
`C[C@@H]1CN(c2cc(-c3cccc(-c4ccc(N5CCCC5=O)c(F)c4)c3O)ccn2)CCN1` [Example 252, (R)-1-(3-fluoro-2′-hydroxy-3′-(2-(3-methylpiperazin-1-yl)pyridin-4-yl)-[1,1′-biphenyl]-4-yl)pyrrolidin-2-one]: the half-inhibitory concentration (IC50) in assay [1] (setting [3]) lay in the range of 1 to 10 nM. This compound yielded a 50% growth inhibitory concentration (GI50) in assay [2] (setting [4]) of 300 to 3000 nM.
As to `Cc1cc(-c2ccc(-n3ccn(C)c3=O)c(Cl)c2)c(O)c(-c2cc(Cl)c(F)c(N3CCN(C(C)(C)C)CC3)c2)n1` [Example 1010, 1-(4-(2-(3-(4-(tert-butyl)piperazin-1-yl)-5-chloro-4-fluorophenyl)-3-hydroxy-6-methylpyridin-4-yl)-2-chlorophenyl)-3-methyl-1H-imidazol-2(3H)-one], in assay [1] (setting [5]), the IC50 was 0.01 to 1 nM. This compound showed a GI50 in assay [2] (setting [6]) of 0.3 to 30 nM.
For `Cn1ccn(-c2c(O)cc(-c3cc(F)cc(-c4cccc(N5CCN(C(C)(C)C)CC5)c4)c3O)cc2Cl)c1=O` [Example 952, 1-(3″-(4-(tert-butyl)piperazin-1-yl)-3-chloro-5′-fluoro-2′,5-dihydroxy-[1,1′:3′,1″-terphenyl]-4-yl)-3-methyl-1H-imidazol-2(3H)-one] the same measures were more than 100 nM and 300 to 3000 nM.
As to `CC(C)N1CCCC12CCN(c1cc(-c3cc(F)cc(-c4ccc(-n5ccn(C)c5=O)c(Cl)c4)c3O)ccn1)C2` (stereo not drawn) [Example 751, 1-(3-chloro-5′-fluoro-2′-hydroxy-3′-(2-(1-isopropyl-1,7-diazaspiro[4.4]nonan-7-yl)pyridin-4-yl)-[1,1′-biphenyl]-4-yl)-3-methyl-1H-imidazol-2(3H)-one], in assay [1] (setting [3]), the IC50 is 1 to 10 nM. This compound also gave a GI50 in assay [2] (setting [4]) of 0.3 to 30 nM.
Consider `Cc1cc(-c2ccc(-n3ccn(C)c3=O)c(Cl)c2)c(O)c(-c2cccc(N3CCC4(CCN4C(C)C)C3)c2)n1` (stereo not drawn) [Example 983, 1-(2-chloro-4-(3-hydroxy-2-(3-(1-isopropyl-1,6-diazaspiro[3.4]octan-6-yl)phenyl)-6-methylpyridin-4-yl)phenyl)-3-methyl-1H-imidazol-2(3H)-one], for which the IC50 in assay [1] (setting [5]) fell in the range of 0.01 to 1 nM. In assay [2] (setting [6]), this compound gave a GI50 of 0.3 to 30 nM.
Take `CC(=O)Nc1ccc(-c2cc(C)cc(-c3ccnc(N4CCNCC4)c3)c2O)cc1F` [Example 275, N-(3-fluoro-2′-hydroxy-5′-methyl-3′-(2-(piperazin-1-yl)pyridin-4-yl)-[1,1′-biphenyl]-4-yl)acetamide]: the IC50 in assay [1] (setting [3]) was in the range of 1 to 10 nM. In assay [2] (setting [4]), this compound gave a concentration for 50% growth inhibition (GI50) of 30 to 300 nM.
For `CC(=O)Nc1ccc(-c2cccc(-c3cc(N4CCNCC4)nc4[nH]ccc34)c2O)cc1F` [Example 286, N-(3-fluoro-2′-hydroxy-3′-(6-(piperazin-1-yl)-1H-pyrrolo[2,3-b]pyridin-4-yl)-[1,1′-biphenyl]-4-yl)acetamide] the same measures were 10 to 100 nM and 300 to 3000 nM.
As for `O=C1CCCN1c1ccc(-c2cccc(-c3cncc(N4CCNCC4)c3)c2O)cc1F` [Example 249, 1-(3-fluoro-2′-hydroxy-3′-(5-(piperazin-1-yl)pyridin-3-yl)-[1,1′-biphenyl]-4-yl)pyrrolidin-2-one], in assay [1] (setting [3]), the half-maximal inhibitory concentration (IC50) fell in the range of 1 to 10 nM. Further, the concentration for 50% growth inhibition (GI50) in assay [2] (setting [4]) was 30 to 300 nM.
As to `Cn1ccn(-c2ccc(-c3cc(F)cc(-c4ccnc(N5CC(F)(F)[C@@](C)(O)C5)c4)c3O)cc2Cl)c1=O` [Example 881], the IC50 in assay [1] (setting [5]) fell in the range of 0.01 to 1 nM. The compound also showed a GI50 in assay [2] (SKM-1 antiproliferation assay) of 30 to 300 nM.
For the compound `CN1CC2(C1)CN(c1cc(-c3cc(F)cc(-c4ccc(-n5ccn(C)c5=O)c(Cl)c4)c3O)ccn1)C2` [Example 489, 1-(3-chloro-5′-fluoro-2′-hydroxy-3′-(2-(6-methyl-2,6-diazaspiro[3.3]heptan-2-yl)pyridin-4-yl)-[1,1′-biphenyl]-4-yl)-3-methyl-1H-imidazol-2(3H)-one], in assay [1] (setting [3]), the concentration for half-maximal inhibition (IC50) is 1 to 10 nM. Besides, the GI50 in assay [2] (setting [4]) lay within 0.3 to 30 nM.
The corresponding values for `Cn1ccn(-c2ccc(-c3cc(F)cc(-c4ccnc(N5CCN(CC6COC6)CC5)c4)c3O)cc2Cl)c1=O` [Example 611, 1-(3-chloro-5′-fluoro-2′-hydroxy-3′-(2-(4-(oxetan-3-ylmethyl)piperazin-1-yl)pyridin-4-yl)-[1,1′-biphenyl]-4-yl)-3-methyl-1H-imidazol-2(3H)-one] are 0.01 to 1 nM and 0.3 to 30 nM.
The corresponding values for `Cn1ccn(-c2ccc(-c3cc(F)cc(-c4ccc(F)c(N5CCN(C(C)(C)C)CC5)c4)c3O)cc2Cl)c1=O` [Example 719, 1-(3″-(4-(tert-butyl)piperazin-1-yl)-3-chloro-4″,5′-difluoro-2′-hydroxy-[1,1′:3′,1″-terphenyl]-4-yl)-3-methyl-1H-imidazol-2(3H)-one] are 0.01 to 1 nM and 0.3 to 30 nM.
In the case of `CC(=O)NCCOc1ncc(-c2cc(F)cc(-c3ccc(N4CCN(C)C4=O)c(Cl)c3)c2O)cc1N1CCNCC1` [Example 396, N-(2-((5-(3′-chloro-5-fluoro-2-hydroxy-4′-(3-methyl-2-oxoimidazolidin-1-yl)-[1,1′-biphenyl]-3-yl)-3-(piperazin-1-yl)pyridin-2-yl)oxy)ethyl)acetamide], the IC50 in assay [1] (setting [3]) is 1 to 10 nM. In assay [2] (setting [4]), this compound showed a GI50 of 30 to 300 nM.
The corresponding values for `Cn1ccn(-c2ccc(-c3cc(F)cc(-c4ccnc(N5CCN6CCOCC6C5)c4)c3O)cc2Cl)c1=O` (stereo not drawn) [Example 647, 1-(3-chloro-5′-fluoro-3′-(2-(hexahydropyrazino[2,1-c][1,4]oxazin-8(1H)-yl)pyridin-4-yl)-2′-hydroxy-[1,1′-biphenyl]-4-yl)-3-methyl-1H-imidazol-2(3H)-one] are 0.01 to 1 nM and 0.3 to 30 nM.
For `CN1CCN(c2ccc(-c3cc(F)cc(-c4cnc(N5CCCC5)c(N5CCNCC5)c4)c3O)cc2Cl)C1=O` [Example 397, 1-(3-chloro-5′-fluoro-2′-hydroxy-3′-(5-(piperazin-1-yl)-6-(pyrrolidin-1-yl)pyridin-3-yl)-[1,1′-biphenyl]-4-yl)-3-methylimidazolidin-2-one] the same measures were 1 to 10 nM and 30 to 300 nM.
For the compound `COc1ncc(-c2cc(F)cc(-c3ccc(-n4ccn(C)c4=O)c(Cl)c3)c2O)cc1N1CCC2(CCCN2C(C)C)C1` (stereo not drawn) [Example 913, 1-(3-chloro-5′-fluoro-2′-hydroxy-3′-(5-(1-isopropyl-1,7-diazaspiro[4.4]nonan-7-yl)-6-methoxypyridin-3-yl)-[1,1′-biphenyl]-4-yl)-3-methyl-1H-imidazol-2(3H)-one], in assay [1] (setting [5]), the IC50 was 0.01 to 1 nM. The 50% growth inhibitory concentration (GI50) in assay [2] (setting [6]) is 0.3 to 30 nM.
As to `CN(C)c1ncc(-c2cc(F)cc(-c3ccc(-n4ccn(C)c4=O)c(Cl)c3)c2O)cc1N1CCN(C(C)(C)C)CC1` [Example 922, 1-(3′-(5-(4-(tert-Butyl)piperazin-1-yl)-6-(dimethylamino)pyridin-3-yl)-3-chloro-5′-fluoro-2′-hydroxy-[1,1′-biphenyl]-4-yl)-3-methyl-1H-imidazol-2(3H)-one], in assay [1] (setting [5]), the IC50 lay within 0.01 to 1 nM. The compound further returned a GI50 in assay [2] (setting [6]) of 0.3 to 30 nM.
For the compound `Cn1ccn(-c2ccc(-c3cc(F)cc(-c4ccnc(N5CC[C@H](N)C5)c4)c3O)cc2Cl)c1=O` [Example 423, (S)-1-(3′-(2-(3-aminopyrrolidin-1-yl)pyridin-4-yl)-3-chloro-5′-fluoro-2′-hydroxy-[1,1′-biphenyl]-4-yl)-3-methyl-1H-imidazol-2(3H)-one], in assay [1] (setting [3]), the IC50 fell in the range of 0.01 to 1 nM. In assay [2] (setting [4]), this compound came in with a GI50 of 0.3 to 30 nM.
On to `Cn1ccn(-c2ccc(-c3cc(F)cc(-c4ccnc(N5CCC[C@@H](O)C5)c4)c3O)cc2Cl)c1=O` [Example 622, (R)-1-(3-chloro-5′-fluoro-2′-hydroxy-3′-(2-(3-hydroxypiperidin-1-yl)pyridin-4-yl)-[1,1′-biphenyl]-4-yl)-3-methyl-1H-imidazol-2(3H)-one], for which, in assay [1] (setting [3]), the IC50 was 1 to 10 nM. Besides, in assay [2] (setting [4]), the concentration for 50% growth inhibition (GI50) was 30 to 300 nM.
For `Cn1ccn(-c2ccc(-c3cc(F)cc(-c4cc(N5CCNCC5)c5nn[nH]c5c4)c3O)cc2Cl)c1=O` [Example 535, 1-(3-chloro-5′-fluoro-2′-hydroxy-3′-(4-(piperazin-1-yl)-1H-benzo[d][1,2,3]triazol-6-yl)-[1,1′-biphenyl]-4-yl)-3-methyl-1H-imidazol-2(3H)-one] the same measures were 1 to 10 nM and 0.3 to 30 nM.
The corresponding values for `Cn1ccn(-c2ccc(-c3cc(F)cc(-c4cc(F)cc(N5CCNCC5)c4)c3O)cc2Cl)c1=O` [Example 706, 1-(3-chloro-3″,5′-difluoro-2′-hydroxy-5″-(piperazin-1-yl)-[1,1′:3,1″-terphenyl]-4-yl)-3-methyl-1H-imidazol-2(3H)-one] are 0.01 to 1 nM and 0.3 to 30 nM.
For `Cc1cc(-c2ccc(-n3ccn(C)c3=O)c(Cl)c2)c(O)c(-c2cccc(N3CCN(C(C)(C)C)CC3)c2)n1` [Example 916, 1-(4-(2-(3-(4-(tert-Butyl)piperazin-1-yl)phenyl)-3-hydroxy-6-methylpyridin-4-yl)-2-chlorophenyl)-3-methyl-1H-imidazol-2(3H)-one], the IC50 in assay [1] (setting [5]) lay within 0.01 to 1 nM. In assay [2] (setting [6]), this compound gave a 50% growth inhibitory concentration (GI50) of 0.3 to 30 nM.
